Source: patent publication US20240002416A1 (Rheinische-Friedrich-Wilhelms-Universität Bonn, priority 2020, published 2024)

Experiments:
[1] = molecular target: MRGPRX4-83S (Homo sapiens, UniProt Q96LA9, L83S); experiment: β-arrestin assay (CHO β-arrestin human MRGPRX4-83S); assay type: cell-based; design: host or cells: CHO β-arrestin cells; details: Table 3; for Emax: efficacy based on 100 nM B-16 (set as 100%), read-out: Emax; for EC50: β-arrestin recruitment, CHO cells, MRGPRX4-83S, read-out: EC50 ± SEM
Experimental: (§1) For β-arrestin recruitment assays, recombinant Chinese hamster ovary (CHO) cells expressing the human MRGPRX4 were used (DiscoverX/Eurofins) which allowed to measure β-galactosidase complementation upon β-arrestin recruitment. For calcium mobilization assays, recombinant astrocytes expressing MRGPX4-83L, or LN229 glioblastoma cells natively expressing the MRGPRX4-83S, were used.
(§2) The assays were performed as previously described for other rhodopsin-like GPCRs (Müller, C.E.; 8-Benzamidochromen-4-one-2-carboxylic acids: potent and selective agonists for the orphan G protein-coupled receptor GPR35. J. Med. Chem. 2013, 56:5182-97; Müller, C.E. Molecular Recognition of Agonists and Antagonists by the Nucleotide-Activated G Protein-Coupled P2Y2 Receptor. J. Med. Chem. 2017, 60:8425-8440).

[2] = molecular target: T1, human MRGPRX4-83L (Homo sapiens, UniProt Q96LA9); experiment: β-arrestin assay (CHO β-arrestin ARMS1-ProLink 2 human MRGPRX4 83L); assay type: cell-based; details: Table 4; for Emax: efficacy based on maximal effect of 100 nM B-16 (set as 100%), read-out: Emax; for EC50: β-arrestin recruitment, CHO cells, MRGPRX4-83L, read-out: EC50 ± SEM
T1 construct: host or cells: CHO β-arrestin cells
Experimental: as §1, §2

[3] = molecular target: T1, human MRGPRX4-83L; experiment: Calcium assay (human MRGPRX4 83L), recombinant astrocytes; assay type: cell-based; details: Table 4; for EC50: calcium mobilization, MRGPRX4-83L, read-out: EC50 ± SEM; for Emax: efficacy based on maximal effect of 1 μM B-16 (set as 100%), read-out: Emax
Experimental: as §1, §2

Sequence of MRGPRX4-83S (Q96LA9 whole entry L83S): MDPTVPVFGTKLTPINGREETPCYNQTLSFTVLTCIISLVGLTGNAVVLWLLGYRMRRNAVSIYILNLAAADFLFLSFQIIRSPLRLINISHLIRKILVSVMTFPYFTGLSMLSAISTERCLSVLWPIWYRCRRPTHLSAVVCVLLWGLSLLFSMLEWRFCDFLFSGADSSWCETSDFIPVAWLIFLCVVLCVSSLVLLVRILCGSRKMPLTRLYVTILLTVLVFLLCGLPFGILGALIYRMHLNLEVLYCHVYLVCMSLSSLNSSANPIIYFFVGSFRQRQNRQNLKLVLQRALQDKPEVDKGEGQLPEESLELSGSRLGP
T1 sequence (Q96LA9 whole entry): as the sequence (Q96LA9 whole entry L83S) above, with S83L counted along it

Row | Structure (SMILES) | melting point | Emax [1] | EC50 [1] | Emax [2] | EC50 [2] | EC50 [3] | Emax [3]
1 | C#CCn1c(=O)c2[nH]c(CCc3ccc(-c4ccccc4)cc3)nc2n(CCCCP(=O)(O)O)c1=O [B-27, (4-(8-(2-([1,1′-Biphenyl]-4-yl)ethyl)-2,6-dioxo-1-(prop-2-yn-1-yl)-1,2,6,7-tetrahydro-3H-purin-3-yl)butyl)phosphonic acid] | 212 to 214 °C | 68% | 36.7 ± 2.8 nM |  |  |  | 
2 | C#CCn1c(=O)c2c(nc(CCc3ccc(CC)cc3)n2CC2CCCC2)n(CCCCP(=O)(O)O)c1=O [B-42, (4-(7-(cyclopentylmethyl)-8-(4-ethylphenethyl)-2,6-dioxo-1-(prop-2-yn-1-yl)-1,2,6,7-tetrahydro-3H-purin-3-yl)butyl)phosphonic acid] | 133 to 135 °C | 92% | 12.5 ± 1.3 nM |  |  |  | 
3 | C#CCn1c(=O)c2c(nc(CCc3ccccc3I)n2C(C)C)n(CCCCP(=O)(O)O)c1=O [B-47, (4-(8-(2-Iodophenethyl)-7-isopropyl-2,6-dioxo-1-(prop-2-yn-1-yl)-1,2,6,7-tetrahydro-3H-purin-3-yl)butyl)phosphonic acid] | 123 to 125 °C |  |  | 97% | 6.85 ± 7.18 nM | 1.16 ± 0.26 nM | 118%
4 | C#CCn1c(=O)c2[nH]c(CCc3ccccc3Br)nc2n(CCCCCP(=O)(O)O)c1=O [B-52, (5-(8-(2-Bromophenethyl)-2,6-dioxo-1-(prop-2-yn-1-yl)-1,2,6,7-tetrahydro-3H-purin-3-yl)pentyl)phosphonic acid] | 219 to 221 °C |  |  | 93% | 1890 ± 280 nM | 604 ± 275 nM | 61%
5 | C#CCn1c(=O)c2[nH]c(CCc3ccccc3Br)nc2n(CCCCCCP(=O)(O)O)c1=O [B-55, (6-(8-(2-Bromophenethyl)-2,6-dioxo-1-(prop-2-yn-1-yl)-1,2,6,7-tetrahydro-3H-purin-3-yl)hexyl)phosphonic acid] | 225 to 227 °C |  |  | 98% | 857 ± 220 nM | 57.8 ± 18.9 nM | 94%

Second part, the compound after the results:

Row | melting point | Emax [1] | EC50 [1] | Emax [2] | EC50 [2] | EC50 [3] | Emax [3] | Structure (SMILES)
6 | 110 to 112 °C |  |  | 94% | 1070 ± 350 nM | 15.5 ± 1 nM | 113% | C#CCn1c(=O)c2c(nc(CCc3ccccc3Br)n2C)n(CCCCCP(=O)(O)O)c1=O [B-53, (5-(8-(2-Bromophenethyl)-7-methyl-2,6-dioxo-1-(prop-2-yn-1-yl)-1,2,6,7-tetrahydro-3H-purin-3-yl)pentyl)phosphonic acid]
7 | 146 to 148 °C |  |  | 96% | 534 ± 170 nM | 20.1 ± 4.1 nM | 103% | C#CCn1c(=O)c2c(nc(CCc3ccccc3Br)n2CC)n(CCCCCP(=O)(O)O)c1=O [B-54, (5-(8-(2-Bromophenethyl)-7-ethyl-2,6-dioxo-1-(prop-2-yn-1-yl)-1,2,6,7-tetrahydro-3H-purin-3-yl)pentyl)phosphonic acid]
8 | 221 to 223 °C |  |  | 91% | 576 ± 83 nM | 57.8 ± 18.9 nM | 102% | C#CCn1c(=O)c2c(nc(CCc3ccccc3Br)n2C)n(CCCCCCP(=O)(O)O)c1=O [B-56, (6-(8-(2-Bromophenethyl)-7-methyl-2,6-dioxo-1-(prop-2-yn-1-yl)-1,2,6,7-tetrahydro-3H-purin-3-yl)hexyl)phosphonic acid]
9 | 223 to 225 °C |  |  | 97% | 766 ± 357 nM | 474 ± 152 nM | 98% | C#CCn1c(=O)c2c(nc(CCc3ccccc3Br)n2CC)n(CCCCCCP(=O)(O)O)c1=O [B-57, (6-(8-(2-Bromophenethyl)-7-ethyl-2,6-dioxo-1-(prop-2-yn-1-yl)-1,2,6,7-tetrahydro-3H-purin-3-yl)hexyl)phosphonic acid]
